Experimental data as given in patent US9102667B2, “N-arylaminomethylene benzothiophenones for treatment of cardiovascular disease” (FORSCHUNGSVERBUND BERLIN E.V., priority 2011, dated 2015).
pIC50, pKd: −log10 of the molar value.

Experiments:
[1] = molecular target: AKAP-PKA interaction (Homo sapiens, UniProt P13861); experiment: AKAP-PKA interaction (disruption) assays of Examples 1-3: alpha screen, surface plasmon resonance, ELISA (combined classification); assay type: binding; details: class from IC50 values in assays of Examples 1, 2 or 3; read-out: Activity (IC50 class)
Protocol: The inhibition of the interaction of the alpha RII subunit of protein kinase A with AKAP18-alpha by the compounds according to the invention is determined as follows:
The experiment measures the suitability of candidate compounds for the inhibition of the interaction between AKAP and PKA. An AKAP-GST fusion construct is immobilized on glutathione donor beads and His-RII-alpha on Ni-chelate acceptor beads. To the extent that the partners interact, singlet oxygen from the donor beads becomes free and activates the fluorescence emission of the acceptor beads. The fluorescence emission determined in the microplate reader is proportional to the intensity of interaction of the protein partners. The IC50 is determined from the results of the measurement of several concentrations of one candidate compound.
The details of the process were as follows: Two protein Solutions A and B are produced in a buffer (phosphate NaCl buffer, 0.1% polysorbate 80, 0.1% [=1 mg/ml BSA]). These contain (A) the histidine-6-tagged fusion construct RII-alpha-His (3.125 nmol/l) and (B) the glutathione-S-transferase-tagged fusion construct GST-AKAP18-alpha-d2-10 (6.25 nmol/l). One volume unit each of protein solution and bead suspension are incorporated, specifically Solution A of the His6-tagged protein with Ni-chelate bead suspension and Solution B of the GST-fusion protein with glutathione beads (Perkin Elmer Product No. 6765302), and in doing so the concentrations are selected according to the manufacturers information. The Mixtures A and B obtained are incubated for one hour at room temperature (RT) in the dark.
Then, 5 μl of Mixture A is laid out for each hole on a 384-hole microtiter plate, and then to start with 0.5 μl of a solution of the candidate compound in DMSO is added and then 5 μl of Mixture B. The resulting reaction mixture is incubated 1 h at RT in the dark. Then, the reaction is tempered to 28.5° C., and the emitter intensity of the acceptor is determined in a microtiter plate reader after excitation of the donor at 680 nm.
The relative inhibition of the AKAP-PKA interaction is calculated following the formula: 1−(xc−y)/(z−y) where: X=average of readings (n=3) at concentration c; Y=average of measurement data from bead-bead check (n=6); Z=average of measurement data from protein-protein check (n=6). Results:
Surface plasmon resonance analyses for competition in solution were performed with streptavidin-coated sensor chips (GE Healthcare, Uppsala, Sweden). The N-terminal biotinylated peptide AKAP18d-L314E was used, which is a variant of the RH-binding domains of AKAP18δ (Hundsrucker et al., Biochem. J. 396, 297-306, [2006]). The binding of the regulatory subunit of the human PKAII-α or RII-β onto the peptide surface of the AKAP18δ-L314E, or the inhibition of this binding to RII by the compounds of the invention, was measured on a Biacaore 3000 machine (Biacore/GE Healthcare) as previously described (Henn et al., J Biol Chem 279, 26654-26665 [2004]). The compounds were injected for 60 sec at a flow rate of 30 μl/min, and the dissociation phase was measured for 180 sec.
Multititer plates (Corning B.V. Life Sciences, Schiphol-Rijk, Netherlands) were coated with recombinantly produced PKA RIIα (15 ng/hole) by incubation with phosphate buffer containing protease inhibitors (1 h, 22° C.). The plate was then blocked with lactoprotein.
GST-AKA7δ (Hundsrucker et al., Biochem. J. 396, 297-306, [2006]; 15 ng/well) was incubated with and without candidate compounds on the plate for 1 h at 22° C. After washing, it was incubated with antibodies (rabbit) against AKA7δ (A18δ3) and then with a peroxidase-conjugated antirabbit antibody and developed with dye substrate (LumiLight Western Blotting Substrate, Roche Diagnostics, Mannheim, Germany). Luminescence activity was determined in a microplate reader (GeniosPro, Tecan, Durham, N.C., United States) at 10 msec integration.

[2] = tested on: C57B1/6 mice undergoing TAC operations; experiment: Transverse aortic constriction (TAC) animal model, Example 5; assay type: in vivo
Protocol: In male C57B1/6 mice (12-14 weeks old, average weight 26 g), high pressure overload induced by restricting the aorta following the method published by de Alameida et al. (J vis exp. 2010 Apr. 21; [38]). Control animals were treated with sham operations. The animals were observed over a period of 4 weeks after the operation, and then mini osmotic pumps were implanted intraperitoneally with a compound to be tested (0.5, 5, 50, and 100 μmol/l, corresponding to 6 μg/kg/day) (Table 2), a β1-adrenergic receptor antagonist (metoprolol; 24 mg/kg/day), a β1-adrenergic receptor […], a PDE3-inhibitor (milrinone; 3.0 mg/kg/d), and DMSO. Echocardiograms were done two and four weeks after implantation.
As expected, the narrowing of the aorta leads to cardiac hypertrophy and chronic heart failure in the 4-week period after surgery. The ejection fraction (ejection fraction; Ef) is the portion of the blood contained in the chambers of the heart that is ejected in comparison with the total volume at the end of diastole of the ventricle. […] The following groups were measured:
Animals undergoing sham operations with • only DMSO as vehicle control (solid black bar); • Compound 59, 3 μg/kg/day in DMSO (checked bar); • Compound 59, 6 μg/kg/day in DMSO (bold crosshatched bar);
Animals undergoing TAC operations with • only DMSO as vehicle control (bold vertically hatched bar); • Compound 59, 0.03 μg/kg/day in DMSO (bold diagonal hatching to upper right); • Compound 59, 0.03 μg/kg/day in DMSO (bold diagonal hatching to lower right); • Compound 59, 3 μg/kg/day in DMSO (thin diagonal hatching to upper right); • Compound 59, 6 μg/kg/day in DMSO (thin diagonal hatching to lower right);

[3] = molecular target: PKA subunit RIIα (Homo sapiens, UniProt P13861); experiment: Microscale Thermophoresis (MST); assay type: binding; details: 20 mM Phosphate, pH 7.5, 100 mM NaCl, 0.05% Tween 20, 5% DMSO, 25° C.
Protocol: Microscale Thermophoresis (MST) were performed on a monolith NT machine (nano tember technologies, Munich, Germany) with exemplary compounds (T2/11, 15, 59) in 20 mM Phosphate, pH 7.5, 100 mM NaCl, 0.05% Tween 20 and 5% DMSO according to the general protocol provided by the manufacturer. Interaction partners were PKA subunit RIIα labelled with blue fluorescent dye NT-495; the parameters were: LED blue, LED Power 80%, Laser Power 20-80%, 25° C. A constant concentration of compounds was titrated with increasing concentrations of unlabelled PKA RIIα (50 nM, 100 nM, 250 nM, 500 nM, 1 μM, 2.5 μM, 5 μM, 10 μM, 25 μM, 50 μM, 100 μM and 200 μM).

Sequence of AKAP-PKA interaction (P13861 2-404 limits assumed): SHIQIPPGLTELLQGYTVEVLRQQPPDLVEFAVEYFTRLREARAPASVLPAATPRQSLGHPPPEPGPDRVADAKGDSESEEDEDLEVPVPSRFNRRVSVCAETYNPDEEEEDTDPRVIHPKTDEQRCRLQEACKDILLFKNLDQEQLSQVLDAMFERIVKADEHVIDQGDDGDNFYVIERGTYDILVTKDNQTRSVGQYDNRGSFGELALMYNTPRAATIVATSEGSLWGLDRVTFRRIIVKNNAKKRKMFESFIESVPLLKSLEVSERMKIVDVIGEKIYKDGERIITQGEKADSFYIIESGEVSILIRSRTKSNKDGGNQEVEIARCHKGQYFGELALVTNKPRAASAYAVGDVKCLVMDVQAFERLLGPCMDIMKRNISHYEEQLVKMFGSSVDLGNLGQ
Sequence of PKA subunit RIIα (P13861 whole entry): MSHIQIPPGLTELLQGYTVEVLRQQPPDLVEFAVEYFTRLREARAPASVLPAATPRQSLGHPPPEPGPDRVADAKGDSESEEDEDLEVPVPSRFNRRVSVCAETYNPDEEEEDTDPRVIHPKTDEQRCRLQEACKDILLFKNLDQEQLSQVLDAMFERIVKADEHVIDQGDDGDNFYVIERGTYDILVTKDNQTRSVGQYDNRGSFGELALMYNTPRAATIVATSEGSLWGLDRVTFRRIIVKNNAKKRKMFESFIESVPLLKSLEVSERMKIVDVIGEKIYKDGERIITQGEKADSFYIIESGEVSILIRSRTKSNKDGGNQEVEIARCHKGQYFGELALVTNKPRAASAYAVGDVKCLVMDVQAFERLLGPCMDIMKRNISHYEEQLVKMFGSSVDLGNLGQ

**Q.** How did the pIC50 [1] turn out when O=C(O)c1ccc(N/C=C2\Sc3ccccc3C2=O)cc1 [T2/59, 4-[[(z)-(3-oxobenzothiophene-2-ylidene)methyl]amino]benzoic acid] was run?
**A.** > 3.60

**Q.** What about the heart rate ([2]; TAC model mice) of the same compound?
**A.** does not affect the heart rate

**Q.** What about the “ejection fraction (Ef)” value ([2]; TAC operated mice, i.p. mini osmotic pump, depending on the dose, operated without treatment 20%, healthy >60%) of the same compound?
**A.** 40%

**Q.** And the “heart weight (ratio of heart weight to the tibia length)” value ([2]; TAC operated treated mice, FIG. 2)?
**A.** falls significantly

**Q.** And the pKd [3]?
**A.** 4.05
